Data as given in patent US20250263408A1 (Uniquest Pty Ltd, priority 2022, published 2025).

Assays:
Syk = target: T1, Syk (Homo sapiens, UniProt P43405); assay: Syk Biochemical Assay (ADP-Glo luminescence); conditions: ATP 40 μM final, 60 minutes, read-out: SYK Biochem IC50
T1 construct: purchased Promega

Ba/F3-Syk cells = target: T2, Ba/F3-Syk cells (Homo sapiens, UniProt P43405); assay: Ba/F3 Proliferation Assay, Ba/F3-Syk cells (Resazurin); format: cell-based; conditions: 48-hour incubation
T2 construct: fused on or other part: Possible but unprinted fusion partner: TEL (ETV6), the usual partner for Ba/F3 lines transformed by Syk; Nothing on a partner is printed

[1] = tested on: Ba/F3-WT (wild type) cells; assay: Ba/F3 Proliferation Assay, Ba/F3-WT (wild type) cells with mIL-3 (Resazurin); format: cell-based; conditions: Mus musculus, BaF3, 48 h, Ba/F3-WT cells +mIL-3, 48-hour incubation
[2] = Brain Penetration Assays: Mouse Pharmacokinetics (plasma and brain levels after oral dose); format: in vivo; conditions: male, CD-1, mouse, mice, 1 hour post oral dose of 10 mg/kg; for concentration at 1 h: brain (free, unbound); for Kp at 1 h: brain / plasma (unbound), read-out: Kpu,u (ratio of unbound brain levels to unbound plasma levels)
Experimental: Male CD-1 mice (6-8 weeks of age, 3 animals per timepoint) were dosed via oral gavage (10 mL/kg) with compound (10 mg/kg, 0.5% methylcellulose in water). Blood samples were taken either non-terminal via saphenous vein or terminal via cardiac puncture and stored in 1.5 mL Eppendorf tubes containing 0.010 mL of 10% K2EDTA, mixed gently and placed in ice before centrifugation. Blood was centrifuged at 10,000 r.p.m. for 2 minutes, plasma harvested and stored at −80° C. Following blood collection at the terminal time points, animals were sacrificed with C02 and brains quickly removed, rinsed with cold saline (0.9% NaCl), surface vasculature ruptured, blotted with dry gauze or tissue and weighed. The whole brain was homogenized in 1.0 mL ice cold phosphate-buffered saline, pH 7.4 and the homogenates stored at −80° C. Compound concentrations were quantified in plasma and brain tissue by LC-MS/MS using a partially validated bioanalytical method.
(§1) The Rapid Equilibrium Dialysis (RED) method was employed with plasma (200 μL, BioIVT, USA) in phosphate buffered saline (PBS, 350 μL) incubated with compound (1 μM) at 37° C. for 5 hours shaking at 450 r.p.m. Acetonitrile (3 volumes) was added and the sample centrifuged for 5 minutes and 1050 r.p.m. then for 15 minutes at 4000 r.p.m. Compound concentrations were quantified via LC-MS/MS from supernatant and free drug was calculated.
as §1, with “RED” for “Rapid Equilibrium Dialysis (RED)”, “mouse brain homogenate (10% w/v prepared in-house))” for “plasma (200 μL, BioIVT, USA) in phosphate buffered saline (PBS, 350 μL)”, “14” for “15”

Structure (SMILES): C[C@@H](Oc1nc(-c2ccn(C)c2)cc2ncccc12)[C@@H]1CNCCO1 [Compound 2.44, 7-(1-methyl-1H-pyrrol-3-yl)-5-[(1R)-1-[(2S)-morpholin-2-yl]ethoxy]-1,6-naphthyridine]
- IC50 (Syk): 0.031 µM
- EC50 (Ba/F3-Syk cells): 0.0531 µM
- EC50 [1]: 2.11 µM
- concentration at 1 h [2]: ≤ 10 nM
- Kp at 1 h [2]: > 0.3

Structure (SMILES): Cn1cc(-c2cc3ncccc3c(OC[C@@H]3CNCC4(CCC4)O3)n2)cn1 [Compound 2.55, 7-(1-methyl-1H-pyrazol-4-yl)-5-{[(6S)-5-oxa-8-azaspiro[3.5]nonan-6-yl]methoxy}-1,6-naphthyridine]
- IC50 (Syk): 0.0297 µM
- EC50 (Ba/F3-Syk cells): 0.0438 µM
- EC50 [1]: 3.27 µM
- concentration at 1 h [2]: > 25 nM
- Kp at 1 h [2]: 0.05 to 0.1

Structure (SMILES): Cn1ccc(-c2cc3ncccc3c(OC[C@@H]3CNCC(C)(C)O3)n2)c1 [Compound 2.51, 5-{[(2S)-6,6-dimethylmorpholin-2-yl]methoxy}-7-(1-methyl-1H-pyrrol-3-yl)-1,6-naphthyridine]
- IC50 (Syk): 0.0081 µM
- EC50 (Ba/F3-Syk cells): 0.0455 µM
- EC50 [1]: 6.07 µM
- concentration at 1 h [2]: ≤ 25 nM
- Kp at 1 h [2]: > 0.3

Structure (SMILES): CC1(C)CNC[C@@H](COc2cc(-c3ccn(C4COC4)c3)cc3ncccc23)O1 [Compound 7.11, 5-{[(2S)-6,6-dimethylmorpholin-2-yl]methoxy}-7-[1-(oxetan-3-yl)-1H-pyrrol-3-yl]quinoline]
- IC50 (Syk): 0.0097 µM
- EC50 (Ba/F3-Syk cells): 0.0144 µM
- EC50 [1]: 1.7 µM
- concentration at 1 h [2]: ≤ 10 nM
- Kp at 1 h [2]: 0.2 to 0.3

Structure (SMILES): CC(C)n1cc(-c2cc3ncccc3c(O[C@H](C)[C@@H]3CNCCO3)n2)cn1 [Compound 2.66, 5-[(1R)-1-[(2S)-morpholin-2-yl]ethoxy]-7-[1-(propan-2-yl)-1H-pyrazol-4-yl]-1,6-naphthyridine]
- EC50 (Ba/F3-Syk cells): 0.0145 µM
- EC50 [1]: 1.02 µM
- concentration at 1 h [2]: ≤ 25 nM
- Kp at 1 h [2]: 0.05 to 0.1

Structure (SMILES): COCCn1ccc(-c2cc3ncccc3c(OC[C@@H]3CNCC4(CC4)O3)n2)c1 [Compound 6.23, 7-[1-(2-methoxyethyl)-1H-pyrrol-3-yl]-5-{[(5S)-4-oxa-7-azaspiro[2.5]octan-5-yl]methoxy}-1,6-naphthyridine]
- IC50 (Syk): 0.0559 µM
- EC50 (Ba/F3-Syk cells): 0.0284 µM
- EC50 [1]: 2.1 µM

Structure (SMILES): COCCn1ccc(-c2cc3ncccc3c(OC[C@@H]3CNCCO3)n2)c1 [Compound 6.10, 7-[1-(2-methoxyethyl)-1H-pyrrol-3-yl]-5-{[(2S)-morpholin-2-yl]methoxy}-1,6-naphthyridine]
- IC50 (Syk): 0.0213 µM
- EC50 (Ba/F3-Syk cells): 0.106 µM
- EC50 [1]: 1.98 µM

Structure (SMILES): c1cnc2cc(-c3ccn(C4COC4)c3)nc(OC[C@@H]3CNCCO3)c2c1 [Compound 6.11, 5-{[(2S)-morpholin-2-yl]methoxy}-7-[1-(oxetan-3-yl)-1H-pyrrol-3-yl]-1,6-naphthyridine]
- IC50 (Syk): 0.0246 µM
- EC50 (Ba/F3-Syk cells): 0.0307 µM
- EC50 [1]: 1.68 µM

Structure (SMILES): CC(C)(C)n1ccc(-c2cc(OC[C@@H]3CNCCO3)c3cccnc3c2)c1 [Compound 3.15, 7-(1-tert-butyl-1H-pyrrol-3-yl)-5-{[(2S)-morpholin-2-yl]methoxy}quinoline]
- IC50 (Syk): 0.0396 µM
- EC50 (Ba/F3-Syk cells): 0.0304 µM
- EC50 [1]: 5.84 µM

Structure (SMILES): CC(C)n1cc(-c2cc(OC[C@@H]3CNCC4(CCC4)O3)c3cccnc3c2)cn1 [Compound 11.8, 5-{[(6S)-5-oxa-8-azaspiro[3.5]nonan-6-yl]methoxy}-7-[1-(propan-2-yl)-1H-pyrazol-4-yl]quinoline]
- IC50 (Syk): 0.0147 µM
- EC50 (Ba/F3-Syk cells): 0.0074 µM
- EC50 [1]: 0.551 µM

Structure (SMILES): C[C@H]1CO[C@H](COc2nc(-c3cnn(C)c3)cc3ncccc23)CN1 (relative stereo) [Compound 2.26, 7-(1-methyl-1H-pyrazol-4-yl)-5-{[(rel-2S,5S)-5-methylmorpholin-2-yl]methoxy}-1,6-naphthyridine]
- IC50 (Syk): 0.131 µM
- EC50 (Ba/F3-Syk cells): 0.216 µM
- EC50 [1]: 1.45 µM

Structure (SMILES): CC(C)n1ccc(-c2cc(OC[C@@H]3CNCCCO3)c3cccnc3c2)c1 [Compound 7.10, 5-{[(2S)-1,4-oxazepan-2-yl]methoxy}-7-[1-(propan-2-yl)-1H-pyrrol-3-yl]quinoline]
- IC50 (Syk): 0.0367 µM
- EC50 (Ba/F3-Syk cells): 0.0447 µM
- EC50 [1]: 3.88 µM

Structure (SMILES): C[C@@H]1CNC[C@@H](COc2nc(-c3cnn(C)c3)cc3ncccc23)O1 [Compound 2.76, 7-(1-methyl-1H-pyrazol-4-yl)-5-{[(2S,6R)-6-methylmorpholin-2-yl]methoxy}-1,6-naphthyridine]
- IC50 (Syk): 0.0176 µM
- EC50 (Ba/F3-Syk cells): 0.0448 µM
- EC50 [1]: 2.76 µM

Structure (SMILES): CC1(C)CNC[C@@H](COc2nc(-c3cnn(C4CC4)c3)cc3ncccc23)O1 [Compound 2.46, 7-(1-cyclopropyl-1H-pyrazol-4-yl)-5-{[(2S)-6,6-dimethylmorpholin-2-yl]methoxy}-1,6-naphthyridine]
- IC50 (Syk): 0.019 µM
- EC50 (Ba/F3-Syk cells): 0.065 µM
- EC50 [1]: 3.43 µM

Structure (SMILES): C[C@H]1CNC[C@@H](COc2nc(-c3cnn(C)c3)cc3ncccc23)O1 (relative stereo) [Compound 2.24, 7-(1-methyl-1H-pyrazol-4-yl)-5-{[(rel-2S,6S)-6-methylmorpholin-2-yl]methoxy}-1,6-naphthyridine]
- IC50 (Syk): 0.129 µM
- EC50 (Ba/F3-Syk cells): 0.135 µM
- EC50 [1]: 1.5 µM

Structure (SMILES): CC(C)n1ccc(-c2cc(OC[C@@H]3CNCCO3)c3nccnc3c2)c1 [Compound 8.6, 5-{[(2S)-morpholin-2-yl]methoxy}-7-[1-(propan-2-yl)-1H-pyrrol-3-yl]quinoxaline]
- IC50 (Syk): 0.0108 µM
- EC50 (Ba/F3-Syk cells): 0.00697 µM
- EC50 [1]: 0.969 µM

Structure (SMILES): Cn1cc(-c2cc(OC[C@@H]3CNCC4(CC4)O3)c3cccnc3c2)cn1 [Compound 3.19, 7-(1-methyl-1H-pyrazol-4-yl)-5-{[(5S)-4-oxa-7-azaspiro[2.5]octan-5-yl]methoxy}quinoline]
- IC50 (Syk): 0.0511 µM
- EC50 (Ba/F3-Syk cells): 0.0991 µM
- EC50 [1]: 6.8 µM

Structure (SMILES): C[C@@H](Oc1nc(-c2cnn(C)c2)cc2ncccc12)[C@@H]1CNCCO1 [Compound 2.5, 7-(1-methyl-1H-pyrazol-4-yl)-5-[(1R)-1-[(2S)-morpholin-2-yl]ethoxy]-1,6-naphthyridine]
- IC50 (Syk): 0.0389 µM
- EC50 (Ba/F3-Syk cells): 0.0767 µM
- EC50 [1]: 2.54 µM

Structure (SMILES): CC(C)n1cc(-c2cc3ncccc3c(OC[C@@H]3CNCC(C)(C)O3)n2)cn1 [Compound 2.45, 5-{[(2S)-6,6-dimethylmorpholin-2-yl]methoxy}-7-[1-(propan-2-yl)-1H-pyrazol-4-yl]-1,6-naphthyridine]
- IC50 (Syk): 0.0092 µM
- EC50 (Ba/F3-Syk cells): 0.0178 µM
- EC50 [1]: 1.48 µM

Structure (SMILES): FC(F)Cn1ccc(-c2cc(OC[C@@H]3CNCCO3)c3nccnc3c2)c1 [Compound 8.8, 7-[1-(2,2-difluoroethyl)-1H-pyrrol-3-yl]-5-{[(2S)-morpholin-2-yl]methoxy}quinoxaline]
- IC50 (Syk): 0.0112 µM
- EC50 (Ba/F3-Syk cells): 0.0162 µM
- EC50 [1]: 1.27 µM

Structure (SMILES): CC(C)(C)[C@@H]1CNC[C@@H](COc2nc(-c3cnn(C(C)(C)C)c3)cc3ncccc23)O1 [Compound 2.101, 7-(1-tert-butyl-1H-pyrazol-4-yl)-5-{[(2S,6R)-6-tert-butylmorpholin-2-yl]methoxy}-1,6-naphthyridine]
- IC50 (Syk): 0.04 µM
- EC50 (Ba/F3-Syk cells): 0.0254 µM
- EC50 [1]: 0.628 µM

Structure (SMILES): CC(C)[C@H]1CNC[C@@H](COc2nc(-c3cnn(C(C)(C)C)c3)cc3ncccc23)O1 [Compound 2.104, 7-(1-tert-butyl-1H-pyrazol-4-yl)-5-{[(2S,6S)-6-(propan-2-yl)morpholin-2-yl]methoxy}-1,6-naphthyridine]
- IC50 (Syk): 0.0166 µM
- EC50 (Ba/F3-Syk cells): 0.0331 µM
- EC50 [1]: 1.57 µM

Structure (SMILES): Cn1ccc(-c2cc3ncccc3c(OC[C@@H]3CNCCCO3)n2)c1 [Compound 2.52, 7-(1-methyl-1H-pyrrol-3-yl)-5-{[(2S)-1,4-oxazepan-2-yl]methoxy}-1,6-naphthyridine]
- IC50 (Syk): 0.0221 µM
- EC50 (Ba/F3-Syk cells): 0.0574 µM
- EC50 [1]: 9.83 µM

Structure (SMILES): CC(C)n1ccc(-c2cc(OC[C@@H]3CNCC(C)(C)O3)c3nccnc3c2)c1 [Compound 8.3, 5-{[(2S)-6,6-dimethylmorpholin-2-yl]methoxy}-7-[1-(propan-2-yl)-1H-pyrrol-3-yl]quinoxaline]
- IC50 (Syk): 0.0057 µM
- EC50 (Ba/F3-Syk cells): 0.0056 µM
- EC50 [1]: 0.833 µM

Structure (SMILES): Cc1ccnc2cc(-c3cnn(C(C)(C)C)c3)nc(OC[C@@H]3CNCC(C)(C)O3)c12 (stereo in doubt) [Compound 14.6, 7-(1-tert-butyl-1H-pyrazol-4-yl)-5-[(6,6-dimethylmorpholin-2-yl)methoxy]-4-methyl-1,6-naphthyridine]
- IC50 (Syk): 0.0129 µM
- EC50 (Ba/F3-Syk cells): 0.0061 µM
- EC50 [1]: 2.67 µM

Structure (SMILES): CC(C)n1cc(-c2cc3ncccc3c(OC[C@@H]3CNCCO3)n2)cn1 [Compound 2.7, 5-{[(2S)-morpholin-2-yl]methoxy}-7-[1-(propan-2-yl)-1H-pyrazol-4-yl]-1,6-naphthyridine]
- IC50 (Syk): 0.0128 µM
- EC50 (Ba/F3-Syk cells): 0.0376 µM
- EC50 [1]: 0.934 µM
